Each structure is given as a SMILES string. Where “and” joins values, the source holds several entries; their conditions need not be identical. Equal values may be shown once. Calls of active or inactive are those of the source.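 How the source made its calls: active means compounds giving half or more protection of infected cells from virus-caused growth loss, again on retest; inactive means the rest.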 Where a SMILES comes first, the peptide text is derived from it. [ ]: non-standard residue; d: D form. The star is where a group is joined. NMeF = CN[CH](Cc1ccccc1)C(=O)O; NMeV = CN[CH](C(=O)O)C(C)C; Boc = CC(C)(C)OC(=O)*; OBn = c1ccc(CO*)cc1

This test relates to CEM cells HIV-1 protection, formazan growth assay. Kind of test: NCI AIDS Antiviral Assay. The conditions noted are these: for IC50: measured here: growth of uninfected CEM cells. An outline of the steps: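 Protection of CEM cells against HIV-1 measured as cell growth via soluble formazan read-out, with five concentrations tested on both infected and uninfected cells; failure to protect may reflect toxicity.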

For the molecule `CCCc1cc(=O)oc2c3c(cc(OC(C)CI)c12)O[C@H](C)[C@@H](C)C3=O` (some centres undefined), the EC50 was over 87.1 µM and the half-inhibitory concentration (IC50) was found to be 21.4 µM.
For the molecule `CC(C)C(NC(=O)OC(C)(C)C)C(=O)N(C)C(Cc1ccccc1)C(=O)N(C)C(C(=O)OCc1ccccc1)C(C)C` (stereo not drawn) (Boc-Val-[NMeF]-[NMeV]-OBn; configuration not given here), the EC50 was over 200 µM; the IC50 was 81.3 µM and 110 µM.
On to `CC(C)(CO)/[N+]([O-])=C/c1ccccc1`, for which the EC50 is over 200 µM and the half-maximal inhibitory concentration (IC50) is over 200 µM.
`c1ccc2c(c1)Nc1nc3ccccc3nc1N2`: the EC50 is over 100 µM and the IC50 is over 100 µM.
Consider `S=c1oc(CCCCCCCCc2nn(CNc3ccccc3)c(=S)o2)nn1CNc1ccccc1`, for which the EC50 was over 200 µM and the IC50 is over 200 µM.
For `CN1C(=O)OC2OC(C)(c3ccc(S(=O)(=O)c4ccccc4)cc3)C(=O)CC21` (centres undefined), the EC50 was over 123 µM and the IC50 was over 123 µM.
As for `CCCN1C(=O)c2cc(=O)n(Cc3ccccc3)c(O)c2C1C` (centres undefined), the EC50 is over 115 µM and the IC50 was over 115 µM.
In the case of `C[N+]1([O-])CCOCC1`, the EC50 was over 200 µM and the IC50 was over 200 µM.
As to `O=C(/C=C/c1ccco1)c1cccc(C(=O)/C=C/c2ccco2)n1`, the EC50 was over 200 µM and the IC50 was 9.55 µM.
The like results for `CN1c2ccccc2N=Cc2c1oc1ccc3ccccc3c1c2=O` were, in that order, 46.8 µM and 50.1 µM.
For `COc1cc(C(=O)N(C(=S)OCc2ccccn2)c2ccccc2)cc(OC)c1OC` the same measures were over 200 µM and 74.1 µM.
Regarding `O=C1CCC2(c3ccccc3)Nc3ccncc3N12` (centres undefined), the EC50 was over 1000 µM and the IC50 was 490 µM.
With `CN(C)Cc1cc(C(=O)/C=C/c2ccccc2Cl)cc(CN(C)C)c1O`, the EC50 was over 200 µM and the IC50 was determined as 7.24 µM.
With `O=C1NC(=O)C(CC(C(=O)C(=O)Nc2ccccc2Cl)C(=O)c2ccc3ccccc3c2)C(=O)N1` (centres undefined), the EC50 was over 38 µM and the IC50 was over 38 µM.
With `c1ccc2c(c1)[nH]c1scc[n+]12`, the result was inactive.
Take `Cc1ccc(C)c(NC(=O)CC2C(=O)Nc3ccccc3S2(=O)=O)c1` (centres undefined): the EC50 was over 4.07 µM and the concentration for half-maximal inhibition (IC50) is over 4.07 µM.
With `COc1cc2c(cc1OC)CCc1cc(OC)c(OC)cc1CC2`, the EC50 was over 200 µM and the IC50 was 89.1 µM.
As to `COc1ccc(C2C(N)=NCC2c2ccccn2)cc1` (centres undefined), the result was inactive.
With `COC(=O)C(CCC#N)(CCC#N)C(=O)OC`, the EC50 is over 21.9 µM and the half-maximal inhibitory concentration (IC50) was over 21.9 µM.
For the molecule `O=c1c(O)c(O)c1=O`, the outcome was inactive.
On to `Cc1nc(C(N)=S)sc1C(=O)CC(=O)C(=O)Nc1nc2ccccc2[nH]1`, for which the EC50 is over 93.3 µM and the IC50 was over 93.3 µM.
Take `O=C(Nn1c(-c2ccccc2)nc2ccccc2c1=O)c1ccc([N+](=O)[O-])cc1`: the EC50 is over 200 µM and the IC50 is over 200 µM.
`Cc1ccc2c(c1)CN(C(=O)CCC(=O)OCc1ccccc1)c1ccc(C)cc1CN2C(=O)CCC(=O)OCc1ccccc1`: the outcome was inactive.
For `O=C1CCC2CN3CCc4c([nH]c5ccccc45)C3CC2C1` (centres undefined), the EC50 is over 45.7 µM.
Turning to `CC1=C(O)c2cn(C)cc2C(=O)C1=O`, the outcome was inactive.
`O=c1ccc2ccc(OP(=O)(O)O)cc2o1`: the EC50 was over 200 µM and the IC50 was over 200 µM.
On to `O=C(c1ccccc1)[C@H]1Nc2ccc(Cl)cc2C2c3ccccc3CC21` (some centres undefined), for which the EC50 is over 14.5 µM and the IC50 is over 14.5 µM.
For the molecule `COc1ccc2oc(C(=O)O)c3c2c1CCC3`, the outcome was inactive.
Regarding `COc1cccc(-c2nc(N)c(C#N)c3c2CCS(=O)(=O)c2ccc(C)cc2-3)c1`, the EC50 is over 200 µM and the IC50 was 4.07 µM.
The like results for `COc1cc(-c2[o+]c3cc(O)cc(O)c3cc2O)cc(O)c1O` were, in that order, over 200 µM and 15.1 µM.
The like results for `Cc1cc(/C=C2\C=Cc3ccccc32)ccc1N(C)C` were, in that order, over 38 µM and over 38 µM.
For the molecule `CC(=O)CCCC(CC(C)O)[Si](C)(C)C` (centres undefined), the EC50 was over 1070 µM and the IC50 turned out to be 562 µM.
For `Oc1c2cc(Cl)cc1COCc1cc(Cl)cc(c1O)COCc1cc(Cl)cc(c1O)COC2` the same measures were over 200 µM and 38.9 µM.
In the case of `C/C=C/COc1cc(NC(=S)c2ccoc2C)ccc1OC`, the EC50 is 0.813 µM and the half-inhibitory concentration (IC50) is 1.62 µM.
The like results for `CC(C)CCCC(C)[C@H]1CCC2C3CC=C4C[C@@H](OP(=O)(O)OCCC=C(c5cc(Cl)c(O)c(C(=O)O)c5)c5cc(Cl)c(O)c(C(=O)O)c5)CC[C@]4(C)C3CC[C@@]21C` (some centres undefined) were, in that order, over 100 µM and 38.9 µM.
For `Cc1c(C(=O)C/C(=N\O)C(=O)Nc2cc(Cl)c(Cl)cc2Cl)[n+](=O)c2ccccc2n1[O-]` the same measures were over 14.8 µM and over 14.8 µM.
The like results for `O=C1C2=C(c3ccccc31)C(c1ccccc1Cl)NC(=S)N2` (centres undefined) were, in that order, over 79.4 µM and 33.1 µM.
Regarding `Cc1onc(-c2c(F)cccc2Cl)c1C(=O)Nc1cc2cc([N+](=O)[O-])ccc2oc1=O`, the EC50 was over 50.1 µM and the IC50 was over 50.1 µM.
With `O=c1ccn(CC2OCC(CO)O2)c(=O)[nH]1` (centres undefined), the EC50 is over 2750 µM; the half-inhibitory concentration (IC50) was 1150 µM and > 2750 µM.
On to `O=C1CS(=O)(=O)C(c2ccccc2F)N1N1C(=O)CS(=O)(=O)C1c1ccccc1F` (centres undefined), for which the EC50 is over 151 µM and the 50% inhibitory concentration (IC50) is over 151 µM.
For the molecule `O=C1/C(=C/c2ccc(F)cc2)CCc2ccccc21`, the EC50 was over 10.7 µM and the IC50 was over 10.7 µM.
Turning to `COc1cc2c3cc1Oc1c(O)c(OC)cc4c1C(Cc1ccc(O)c(c1)Oc1ccc(cc1)CC3N(C)CC2)N(C)CC4` (centres undefined), the outcome was inactive.
On to `C=C(C)C(OC(C)=O)C(OCC)c1c(OC)ccc2ccc(=O)oc12` (centres undefined), for which the EC50 is over 50.1 µM and the IC50 was over 50.1 µM.
`C=C1C(C2(C)C=CC(=O)OC3(C)COC(=O)CC32)C(OC=O)C(OC(=O)C(O)C(C)CC)C2(C)C(c3ccoc3)CC(OC(C)=O)C12O` (centres undefined): the result was inactive.
On to `Cn1cnc([N+](=O)[O-])c1Sc1nc2ncccc2[nH]1`, for which the EC50 was over 912 µM and the half-inhibitory concentration (IC50) was found to be 21.9 µM.
For `COC1CCC(=O)N1CC/C=C(/Br)[Si](C)(C)C` (centres undefined), the outcome was inactive.
As for `COc1ccc(COCC(Cn2ccnc2)OCc2ccc(C(=O)O)cc2)cc1` (centres undefined), the EC50 was over 631 µM and the concentration for half-maximal inhibition (IC50) stood at 589 µM.
The like results for `NC(=O)Nc1ccc(S(=O)(=O)c2ccc(N)cc2)cc1` were, in that order, over 200 µM and over 200 µM.
For `CN(C)Cc1cc(N=Nc2ccccc2Cl)ccc1O` the same measures were over 20 µM and 10.2 µM.
For `COC(=O)C1=CC[C@@H]2C(C(=O)O)=CO[C@@H](OC3OC(CO)C(O)C(O)C3O)[C@H]12` (some centres undefined) the same measures were over 200 µM and over 200 µM.
As for `O=C(NCCCCN(CCCNC(=O)C(F)(F)F)Cc1ccc2ccccc2c1)C(F)(F)F`, the EC50 was over 200 µM and the 50% inhibitory concentration (IC50) was 34.7 µM.
On to `CSCCCNC(=O)[C@H](CSC)NC(=O)c1csc(CCNC(=O)[C@@H](NSc2ccccc2[N+](=O)[O-])C(C)O)n1` (some centres undefined), for which the EC50 is over 57.5 µM and the concentration for half-maximal inhibition (IC50) was over 57.5 µM.
As for `N#Cc1ccsc1Nc1ccccc1[N+](=O)[O-]`, the half-maximal effective concentration (EC50) was 95.5 µM and the IC50 was over 200 µM.
The like results for `NC(=O)C(=CNC(=S)c1cccnc1)C(N)=O` were, in that order, over 200 µM and 74.1 µM.
For `CCOP1(=O)C=C(Sc2ccc([N+](=O)[O-])cc2[N+](=O)[O-])C(C)(C)O1` (centres undefined) the same measures were over 200 µM and 110 µM.
Take `CC1=CC(=O)c2c(C=O)c(O)c(O)c(C(C)C)c2C1=O`: the EC50 is over 95.5 µM and the concentration for half-maximal inhibition (IC50) was determined as 1.91 µM.
The like results for `O=C1CNS(=O)(=O)N1` were, in that order, over 1820 µM and over 1820 µM.
Consider `c1ccc2c(CN3CCC(C4CCN(Cc5cccc6ccccc56)CC4)CC3)cccc2c1`, for which the EC50 is over 200 µM and the half-maximal inhibitory concentration (IC50) stood at 0.933 µM.
For `O=C1c2ccccc2C(c2ccccc2)C1c1ccccc1` (centres undefined) the same measures were over 200 µM and 19.5 µM.
The like results for `CCOP(=O)(O)C(Nc1ccc(N=Nc2ccccc2)cc1)c1ccc(C(Nc2ccc(N=Nc3ccccc3)cc2)P(=O)(O)OCC)cc1` (centres undefined) were, in that order, over 81.3 µM and 30.2 µM.
The like results for `Cc1c2ccccc2nc(CSCC(O)CO)[n+]1[O-]` (centres undefined) were, in that order, over 200 µM and over 200 µM.
Turning to `CCN(CC)CCNc1ccc2ncn3c4c(OC)cccc4c(=O)c1c23`, the EC50 is over 50.1 µM and the IC50 was 0.871 µM.
For `COc1ccc(N=C2SCC(=O)N2NC(=O)CN2C(=O)c3ccccc3C2=O)cc1` the same measures were over 20.4 µM and 17.4 µM.
The like results for `CCN(CC)CCn1c2c3ccccc3ccc2c2oc(=O)c3ccccc3c21` were, in that order, over 16.2 µM and over 16.2 µM.
Consider `Nc1ccc(C(=O)N/C(=C\c2cccc([N+](=O)[O-])c2)c2nc3ccc(Cl)cc3[nH]2)cc1`, for which the result was inactive.
With `C=Cc1ccncc1`, the EC50 is over 200 µM and the concentration for half-maximal inhibition (IC50) was over 200 µM.
Regarding `O=C(C[C@H](Cl)[C@H](NC(=O)OCc1ccccc1)C(=O)O)NO`, the outcome was inactive.
Regarding `CC1=C(C(=O)Nc2ccccc2C)C(c2ccccc2C)C(C(=O)Nc2ccccc2C)=C(C)N1`, the EC50 was over 15.5 µM and the half-maximal inhibitory concentration (IC50) was over 15.5 µM.
As to `O=C(O)CCCCCCCCCCCF`, the EC50 is over 200 µM and the IC50 was determined as 186 µM.
The like results for `CCOP(=O)(OCC)/C(C#N)=C/c1ccc[nH]1` were, in that order, over 977 µM and 575 µM.
The like results for `Cc1nn(-c2ccccc2)c2c1S(=O)(=O)c1ccccc1-2` were, in that order, over 112 µM and 69.2 µM.
The like results for `COC(=O)C(=O)C(C(=O)C(=O)Nc1ccccc1C(N)=O)c1nc2ccc([N+](=O)[O-])cc2[nH]c1=O` (centres undefined) were, in that order, over 525 µM and 372 µM.
As to `O=S1c2ccccc2NC(c2ccc3ccccc3c2)CC1c1ccccc1` (centres undefined), the EC50 was over 7.08 µM and the IC50 is over 7.08 µM.

Usually EC50 stands for the concentration that produces a half-maximal response. One may read the IC50 as the concentration needed to halve the response being measured. A high value points to weaker potency in that assay.

The values are drawn from PubChem BioAssay AID179 (DTP/NCI, 2004).
